Measured values published in patent US20250319108A1, “COMBINATIONS” (AN2 Therapeutics, Inc., priority 2021, published 2025).
Values after ≈ are worked out from the molar mass of the structure shown. Structures can show the parent of a compound that is named as a salt. Where two headings read alike, the source gives them in different places.

Tests used:
[1] = tested on: M. abscessus ATCC 19977; assay: MIC, broth microdilution; assay type: cell-based; settings: for MIC: Mycobacteroides abscessus, ATCC19977, read-out: In Vitro Activity (MIC)
Experimental: (§1) Minimum inhibitory concentration (MIC) determinations: MIC values for the putative EBO resistant mutants were determined by broth microdilution method (BMD) in cation-adjusted Mueller Hinton broth according to Clinical and Laboratory Standards Institute document M24-A3 (Clinical and Laboratory Standards Institute. Susceptibility Testing of Mycobacteria, Nocardia spp., and Other Aerobic Actinomycetes. 3rd ed. CLSI standard M24. Clinical and Laboratory Standards Institute, Wayne, PA: 2018). Agar MIC values were determined as essentially described by CLSI M24-A3 using 7H10 Middlebrook agar and 5% OADC.

[2] = tested on: M. avium 2285R; assay: MIC, broth microdilution; assay type: cell-based; settings: for MIC: Mycobacterium avium, read-out: In Vitro Activity (MIC)
Experimental: as §1

[3] = tested on: M. avium ATCC 700858; assay: MIC, broth microdilution; assay type: cell-based; settings: for MIC: Mycobacterium avium, ATCC700858, read-out: In Vitro Activity (MIC)
Experimental: as §1

[4] = tested on: M. chimaera 20-S-05; assay: MIC, broth microdilution; assay type: cell-based; settings: for MIC: 20S05, read-out: In Vitro Activity (MIC)
Experimental: as §1

[5] = tested on: M. intracellulare 20-S-13; assay: MIC, broth microdilution; assay type: cell-based; settings: for MIC: Mycobacterium intracellulare
Experimental: as §1

[6] = tested on: M. intracellulare DNA000111; assay: MIC, broth microdilution; assay type: cell-based; settings: for MIC: Mycobacterium intracellulare, read-out: In Vitro Activity (MIC)
Experimental: as §1

[7] = tested on: M. peregrinum ATCC 700686; assay: MIC, broth microdilution; assay type: cell-based; settings: for MIC: Mycolicibacterium peregrinum, ATCC700686, read-out: In Vitro Activity (MIC)
Experimental: as §1

[8] = tested on: M. avium ATCC 700898; assay: Agar MIC; assay type: cell-based; settings: 7H10 Middlebrook agar, 5% OADC; for MIC: Mycobacterium avium, ATCC700898
Experimental: as §1
(§2) Resistant colonies were confirmed by replica plating on agar plates containing antibiotic at the same concentration used to select resistance. Control plates containing no drug were prepared for inoculum determination. The RF was calculated by dividing the total CFU/mL of resistant colonies by the total CFU/mL of the inoculum.

[9] = tested on: M. avium ATCC 700898 isolate 16-3A; assay: MIC, EBO selected isolate; assay type: cell-based
Experimental: as §1, §2

[10] = tested on: M. avium ATCC 700898 isolate 16-5A; assay: MIC, EBO selected isolate; assay type: cell-based
Experimental: as §1, §2

[11] = tested on: M. avium ATCC 700898 isolate 32-5A; assay: MIC, EBO selected isolate; assay type: cell-based
Experimental: as §1, §2

[12] = tested on: M. avium ATCC 700898 isolate 32-8A; assay: MIC, EBO selected isolate; assay type: cell-based
Experimental: as §1, §2

[13] = tested on: M. avium ATCC 700898 isolate 64-3A; assay: MIC, EBO selected isolate; assay type: cell-based
Experimental: as §1, §2

[14] = tested on: M. avium ATCC 700898 isolate 64-4A; assay: MIC, EBO selected isolate; assay type: cell-based
Experimental: as §1, §2

[15] = tested on: M. avium ATCC 700898 WT; assay: MIC, parent strain; assay type: cell-based
Experimental: as §1, §2

[16] = tested on: M. avium ATCC 700898; assay type: cell-based
Experimental: as §2

[17] = tested on: EBO resistant mutants of M. avium ATCC 700898; assay type: cell-based
Experimental: as §1, §2

[18] = tested on: M. intracellulare 20-S-13; assay: Checkerboard synergy testing with EBO; assay type: cell-based; settings: M. intracellulare 20-S-13, clarithromycin resistant
Experimental: Frozen stocks of the drugs were prepared at 5 or 2 mg/ml and frozen in aliquots at −20° C. On the day of the experiment the stocks were thawed and diluted to the appropriate concentration.
Stocks of isolates were prepared and frozen at −80° C. Fresh cultures of each isolate (1-2 weeks) were grown on either 7H10 agar plus 5% OADC or CAMH agar plus 5% OADC for use in each experiment.
(§3) The checkerboard methodology was used to test for synergy and antagonism using Middlebrook 7H9+5% OADC (Dubos et al. Am Rev Tuberc (1947) 56:334-45) as the microbiology growth media. The first antibiotic of the combination, EBO, was serially diluted along the x-axis, whereas the second antibiotic was diluted along the y- axis. Synergistic or antagonistic activity was determined using the sum of the fractional inhibitory concentration (EFIC) index. The FIC index is calculated as the sum of FIC A+FIC B, where FIC A is the MIC of drug A in the combination of drugs A and B divided by the MIC of drug A alone, plus the MIC of drug B in the combination of drugs A and B divided by the MIC of drug B alone. A combination of drugs is considered synergistic when the FIC is <0.5, additive when the FIC is >0.5 to 1, indifferent when the FIC is >1 to 2, and antagonistic when the FIC is >2 (EUCAST. Clin. Microbiol. Infect. (2000) 6: 503-508).

[19] = tested on: NTM strains (5 MAC strains, 2 rapidly growing); assay: Checkerboard synergy testing with EBO, summary over strains; assay type: cell-based
Experimental: as §3

[20] = tested on: M. avium ATCC 700898; settings: Sensititre SLOMYCO plate; cited from earlier work
[21] = 20S13, M. intracellulare 20-S-13, read-out: In Vitro Activity (MIC)
[22] = 20S13, read-out: In Vitro Activity (MIC)
[23] = Mycobacterium avium, ATCC700898

SMILES	MIC [1]	MIC [2]	MIC [3]	MIC [4]	MIC [6]	MIC [7]	MIC [8]	MIC ([9]; Mycobacterium avium)	MIC ([10]; Mycobacterium avium)	MIC ([11]; Mycobacterium avium)	MIC ([12]; Mycobacterium avium)	MIC ([13]; Mycobacterium avium)	MIC ([14]; Mycobacterium avium)	MIC [5, 22]	MIC [15, 23]	also measured
NCC[C@H](O)C(=O)N[C@@H]1C[C@H](N)[C@@H](O[C@H]2O[C@H](CN)[C@@H](O)[C@H](O)[C@H]2O)[C@H](O)[C@H]1O[C@H]1O[C@H](CO)[C@@H](O)[C@H](N)[C@H]1O [AMK, Amikacin]	64 µg/mL (≈ 109 µM)	8 µg/mL (≈ 13.7 µM)	16 µg/mL (≈ 27.3 µM)	32 µg/mL (≈ 54.6 µM)	16 µg/mL (≈ 27.3 µM)	2 µg/mL (≈ 3.42 µM)	32 µg/mL (≈ 54.6 µM)	32 µg/mL (≈ 54.6 µM)	32 µg/mL (≈ 54.6 µM)	32 µg/mL (≈ 54.6 µM)	32 µg/mL (≈ 54.6 µM)	32 µg/mL (≈ 54.6 µM)	32 µg/mL (≈ 54.6 µM)			MIC [5, 21]: 20 µg/mL (≈ 34.2 µM)
COc1nc2ccc(Br)cc2cc1[C@@H](c1ccccc1)[C@@](O)(CCN(C)C)c1cccc2ccccc12 [BDQ, Bedaquiline]	0.5 µg/mL (≈ 0.9 µM)	0.03 µg/mL (≈ 0.054 µM)	0.06 µg/mL (≈ 0.108 µM)	0.06 µg/mL (≈ 0.108 µM)	0.5 µg/mL (≈ 0.9 µM)	0.06 µg/mL (≈ 0.108 µM)		0.06 µg/mL (≈ 0.108 µM)	0.06 µg/mL (≈ 0.108 µM)	0.03 µg/mL (≈ 0.054 µM)	0.12 µg/mL (≈ 0.216 µM)	0.12 µg/mL (≈ 0.216 µM)	0.06 µg/mL (≈ 0.108 µM)	> 0.5 µg/mL	0.06 µg/mL (≈ 0.108 µM)	
CC(C)/N=c1\cc2n(-c3ccc(Cl)cc3)c3ccccc3nc-2cc1Nc1ccc(Cl)cc1 [CFZ, clofazimine]								0.25 µg/mL (≈ 0.528 µM)	0.25 µg/mL (≈ 0.528 µM)	0.5 µg/mL (≈ 1.06 µM)	0.25 µg/mL (≈ 0.528 µM)	0.5 µg/mL (≈ 1.06 µM)	0.5 µg/mL (≈ 1.06 µM)		0.5 µg/mL (≈ 1.06 µM)	
CC[C@H]1OC(=O)[C@H](C)[C@@H](O[C@H]2C[C@@](C)(OC)[C@@H](O)[C@H](C)O2)[C@H](C)[C@@H](O[C@@H]2O[C@H](C)C[C@H](N(C)C)[C@H]2O)[C@](C)(OC)C[C@@H](C)C(=O)[C@H](C)[C@@H](O)[C@]1(C)O [CLR, Clarithromycin]	16 µg/mL (≈ 21.4 µM)	0.125 µg/mL (≈ 0.167 µM)	2 µg/mL (≈ 2.67 µM)	4 µg/mL (≈ 5.35 µM)	2 µg/mL (≈ 2.67 µM)	1 µg/mL (≈ 1.34 µM)	4 µg/mL (≈ 5.35 µM)	0.5 µg/mL (≈ 0.668 µM)		1 µg/mL (≈ 1.34 µM)	0.5 µg/mL (≈ 0.668 µM)	0.5 µg/mL (≈ 0.668 µM)	2 µg/mL (≈ 2.67 µM)	> 128 µg/mL	2 µg/mL (≈ 2.67 µM)	
NC[C@H]1OB(O)c2c(OCCCO)cccc21 [EBO, Epetraborole hydrochloride]																In Vitro Activity (MIC) [1]: 0.06 µg/mL; In Vitro Activity (MIC) [2]: 0.5 µg/mL; In Vitro Activity (MIC) [3]: 2 µg/mL; In Vitro Activity (MIC) [4]: 2 µg/mL; In Vitro Activity (MIC) ([5]; M. intracellulare 20-S-13): 0.25 µg/mL; In Vitro Activity (MIC) [6]: 0.5 µg/mL; In Vitro Activity (MIC) [7]: 0.06 µg/mL; Agar MIC [8]: 8 µg/mL; Resistance Frequency ([16]; EBO selection concentration 16 mg/L): 1.58 × 10^−7; Resistance Frequency ([16]; EBO selection concentration 32 mg/L): 1.21 × 10^−8; Resistance Frequency ([16]; EBO selection concentration 64 mg/L): 8.49 × 10^−9; Spontaneous resistance frequency ([16]; selected on 2-8× agar MIC): 1.58×10^−7 to 8.48×10^−9; MIC ([15]; WT parent strain): 0.5 µg/mL; MIC ([9]; EBO selected isolate 16-3A): >128 µg/mL; MIC ([10]; EBO selected isolate 16-5A): 64 µg/mL; MIC ([11]; EBO selected isolate 32-5A): >128 µg/mL; MIC ([12]; EBO selected isolate 32-8A): >128 µg/mL; MIC ([13]; EBO selected isolate 64-3A): >128 µg/mL; MIC ([14]; EBO selected isolate 64-4A): >128 µg/mL; Change of MIC value in EBO resistant mutants versus wild-type [17]: ≥ 128 fold
CC[C@@H](CO)NCCN[C@@H](CC)CO [EMB, Ethambutol]	32 µg/mL (≈ 157 µM)	16 µg/mL (≈ 78.3 µM)	8 µg/mL (≈ 39.2 µM)	4 µg/mL (≈ 19.6 µM)	32 µg/mL (≈ 157 µM)	8 µg/mL (≈ 39.2 µM)	8 µg/mL (≈ 39.2 µM)	4 µg/mL (≈ 19.6 µM)	4 µg/mL (≈ 19.6 µM)	4 µg/mL (≈ 19.6 µM)	8 µg/mL (≈ 39.2 µM)	4 µg/mL (≈ 19.6 µM)	8 µg/mL (≈ 39.2 µM)	64 µg/mL (≈ 313 µM)	4 µg/mL (≈ 19.6 µM)	Interaction between ethambutol and EBO, in words [18]: indifference; Interaction with EBO over the 5 MAC strains tested, in words [19]: synergy was observed with 2 strains and additivity with an additional 2 strains
CO[C@H]1/C=C/O[C@@]2(C)Oc3c(C)c(O)c4c(c3C2=O)C2=NC3(CCN(CC(C)C)CC3)NC2=C(NC(=O)/C(C)=C\C=C\[C@H](C)[C@H](O)[C@@H](C)[C@@H](O)[C@@H](C)[C@H](OC(C)=O)[C@@H]1C)C4=O [RFB, Rifabutin]	32 µg/mL (≈ 37.8 µM)	0.125 µg/mL (≈ 0.148 µM)	0.25 µg/mL (≈ 0.295 µM)	1 µg/mL (≈ 1.18 µM)	2 µg/mL (≈ 2.36 µM)	8 µg/mL (≈ 9.44 µM)	0.25 µg/mL (≈ 0.295 µM)	0.06 µg/mL (≈ 0.0708 µM)	0.06 µg/mL (≈ 0.0708 µM)	0.06 µg/mL (≈ 0.0708 µM)	0.125 µg/mL (≈ 0.148 µM)	0.06 µg/mL (≈ 0.0708 µM)	0.25 to 0.5 µg/mL (≈ 0.295 to 0.59 µM)		0.06 µg/mL (≈ 0.0708 µM)	MIC [5, 21]: 0.06 µg/mL (≈ 0.0708 µM)
CO[C@H]1/C=C/O[C@@]2(C)Oc3c(C)c(O)c4c(O)c(c(/C=N/N5CCN(C)CC5)c(O)c4c3C2=O)NC(=O)/C(C)=C\C=C\[C@H](C)[C@H](O)[C@@H](C)[C@@H](O)[C@@H](C)[C@H](OC(C)=O)[C@@H]1C [rifampin, Rifampin]																MIC variance previously reported for this strain [20]: 8 fold
